Experimental data as given in EP0450065A1, “ANTIVIRAL AGENT” (priority 1988, dated 1990).
Where two headings read alike, the source gives them in different places.

How the values were obtained:
Assay type in all cases: cell-based
[1] = system: herpes simplex virus type 1 (HF strain); assay: Control of CPE (cytopathic effect) manifestation in vero cells; parameters: key to Cytopathic effect [CPE] (3days) Average / Cytopathic effect [CPE] (5days) Average / Cytopathic effect [CPE] (6days) Average: CPE score: 0 none, 0.5 minute spots, 1 = 25%, 2 = 50%, 3 = ≥75% cells; key to Cytopathic effect [CPE] (3days) △CPE / Cytopathic effect [CPE] (5days) △CPE / Cytopathic effect [CPE] (3days) ΔCPE / Cytopathic effect [CPE] (6days) ΔCPE: ΔCPE = difference of average CPE score (0–3 scale) from control; conditions: 100 μg/ml
Procedure: (§1) In vitro antiviral activity of Compound A against herpes simplex virus type 1 (HF strain) Compound A was tested for antiviral effect by the following two methods.
(§2) Vero cells cultured and grown in a monolayer on microplates to test for cytopathic effect due to viral infection, with solutions of Compound A diluted to varying ratios and solutions of virus diluted to varying ratios added severally thereto in a volume of 0.1 ml, were cultured under the conditions of 5% CO₂ and 37°C and were examined for CPE manifestation under a microscope. The observation was continued for five to six days.
(§3) The degree of CPE brought about by viral infection was rated on the five-point scale, wherein 3 stands for CPE observed on not less than 75% of cultured cells, 2 for CPE observed on 50% of cultured cells, 1 for CPE observed on 25% of cultured cells, 0.5 for occurrence of one to two extremely minute DPE spots, and 0 for perfect absence of recognizable CPE. The CPE scores obtained at the four holes in each microplate were averaged and the difference of the average from the average obtained in the control (omitting the treatment with a chemical) was reported as ΔCPE.
(§4) In vitro antiviral effect of Compound A against herpes simplex virus type 1 (HF strain) The test was carried out by following the procedure of Example 3.

[2] = system: herpes simplex virus type 1 (HF strain); assay: 50% Tissue culture infective dose (TCID50), Read-Munch method, negative logarithm of virus dilution
Procedure: as §1
(§5) The amount of virus infecting 50% of tissues (TCID₅₀) was determined by the Read-Munch method and expressed in negative logarithm of the maximum radio of dilution of virus. The difference of the amount thus determined from the amount found in the control (omitting the treatment with a chemical) was reported as ΔTCID₅₀. A sample whose ΔCPE's found on the last day of observation and on each of the days spent for the observation exceeded 1.0 was evaluated as effective.
as §4

[3] = system: herpes simplex virus type 2 (169 strain); assay: as above; parameters: key to Cytopathic effect [CPE] (5days) TCID50 / Cytopathic effect [CPE] (3days) TCID50 / Cytopathic effect [CPE] (6days) TCID50: negative log of maximum virus dilution infecting 50% of tissues; conditions: HSV-2 (169); for log reduction at 100 µg/mL: difference from control
Procedure: as §5
In vitro antiviral activity of Compound A against herpes simplex virus type 2 (169 strain) The test was carried out by following the procedure of Example 3.

[4] = system: herpes simplex virus type 1 (KOS strain); assay: Control of CPE (cytopathic effect) manifestation in vero cells; conditions: 100 μg/ml, HSV-1 (KOS), Example 7
Procedure: as §2, §3
(§6) Antiviral activity of Compound A and Compound B against herpes simplex virus type 1 (KOS strain) The test was carried out by following the procedure of Example 3.

[5] = system: herpes simplex virus type 1 (KOS strain); assay: 50% Tissue culture infective dose (TCID50), Read-Munch method, negative logarithm of virus dilution; parameters: key to Cytopathic effect [CPE] (5days) TCID50 / Cytopathic effect [CPE] (3days) TCID50: TCID50 as negative log of maximum virus dilution ratio
Procedure: as §5, §6

[6] = system: herpes simplex virus type 1 (KOS strain); assay: One-step growth of virus, plaque assay with vero cells; conditions: 100 μg/ml, 24 hours; for inhibition at 100 µg/mL / log reduction at 100 µg/mL: Human alphaherpesvirus 1, Vero, 24 h; for inhibition at 100 µg/mL: read-out: Intracellular virus Control ratio %; for log reduction at 100 µg/mL: read-out: Intracellular virus Control ratio -logT/C
Procedure: Antiviral activity of Compound A and Compound B against one-step growth of herpes simplex virus type 1 (KOS strain) Cells grown in a monolayer, with a sample of a given compound diluted in a varying ratio added, were pretreated for 15 minutes. Then, the pretreated cells were infected with the herpes simplex virus type 1 (KOS strain) at an infecting ratio of 0.25 and left standing for 24 hours. At the end of the standing, the intracellular and extracellular amounts of virus were determined by the plaque assay with vero cells.

[7] = HSV-1 (HF strain), Example 5, difference from control
[8] = HSV-1 (HF), Example 3, difference from control
[9] = 100 μg/ml, HSV-1 (HF strain), Example 5
[10] = 100 μg/ml, HSV-1 (HF), Example 3
[11] = 100 μg/ml, HSV-1 (KOS), Example 7

Nc1nc2c(ncn2COCCO)c(=O)[nH]1 [ACV, acyclovir, reference compound]
Cytopathic effect [CPE] (3days) Average ([1]; HSV-1 (HF strain), Example 5): 0.875
Cytopathic effect [CPE] (6days) Average ([1]; HSV-1 (HF strain), Example 5): 1.0
Cytopathic effect [CPE] (3days) ΔCPE [1, 7]: 1.875
Cytopathic effect [CPE] (6days) ΔCPE [1, 7]: 2.0
Cytopathic effect [CPE] (3days) Average ([1]; HSV-1 (HF), Example 3): 0
Cytopathic effect [CPE] (5days) Average ([1]; HSV-1 (HF), Example 3): 0
Cytopathic effect [CPE] (3days) △CPE [1, 8]: 1.5
Cytopathic effect [CPE] (5days) △CPE [1, 8]: 1.75
Cytopathic effect [CPE] (3days) TCID50 [2, 9]: 5.5
Cytopathic effect [CPE] (6days) TCID50 [2, 9]: 4.3
Cytopathic effect [CPE] (3days) TCID50 [2, 10]: 3.5
Cytopathic effect [CPE] (5days) TCID50 [2, 10]: 3.5
log reduction at 100 µg/mL ([2]; Human alphaherpesvirus 1, 72 h, read-out: Cytopathic effect [CPE] (3days) ΔTCID50): 0.8
log reduction at 100 µg/mL ([2]; Human alphaherpesvirus 1, 72 h, 100 μg/ml, HSV-1 (HF), Example 3, difference from control, read-out: Cytopathic effect [CPE] (3days) △TCID50): 2.5
log reduction at 100 µg/mL ([2]; Human alphaherpesvirus 1, 120 h, 100 μg/ml, HSV-1 (HF), Example 3, difference from control, read-out: Cytopathic effect [CPE] (5days) △TCID50): 2.5
log reduction at 100 µg/mL ([2]; Human alphaherpesvirus 1, 144 h, read-out: Cytopathic effect [CPE] (6days) ΔTCID50): 2
Cytopathic effect [CPE] (3days) TCID50 ([3]; 100 μg/ml, Example 4): 3.5
Cytopathic effect [CPE] (5days) TCID50 ([3]; 100 μg/ml, Example 4): 3.5
Cytopathic effect [CPE] (3days) TCID50 ([3]; 100 μg/ml, Example 6): < 3.5
Cytopathic effect [CPE] (6days) TCID50 ([3]; 100 μg/ml, Example 6): 3.5
log reduction at 100 µg/mL ([3]; Human alphaherpesvirus 2, 72 h, read-out: Cytopathic effect [CPE] (3days) △TCID50, 100 μg/ml, Example 4): 3
log reduction at 100 µg/mL ([3]; Human alphaherpesvirus 2, 72 h, read-out: Cytopathic effect [CPE] (3days) △TCID50, 100 μg/ml, Example 6): > 3.2
log reduction at 100 µg/mL ([3]; Human alphaherpesvirus 2, 120 h, read-out: Cytopathic effect [CPE] (5days) △TCID50, 100 μg/ml, Example 4): 3
log reduction at 100 µg/mL ([3]; Human alphaherpesvirus 2, 144 h, read-out: Cytopathic effect [CPE] (6days) △TCID50, 100 μg/ml, Example 6): 3.2
Cytopathic effect [CPE] (3days) Average [4]: 0
Cytopathic effect [CPE] (5days) Average [4]: 0
Cytopathic effect [CPE] (3days) △CPE ([4]; difference from control): 2.0
Cytopathic effect [CPE] (5days) △CPE ([4]; difference from control): 3.0
Cytopathic effect [CPE] (3days) TCID50 [5, 11]: 3.5
Cytopathic effect [CPE] (5days) TCID50 [5, 11]: 3.5
log reduction at 100 µg/mL ([5]; Human alphaherpesvirus 1, 72 h, read-out: Cytopathic effect [CPE] (3days) △TCID50): 2
log reduction at 100 µg/mL ([5]; Human alphaherpesvirus 1, 120 h, read-out: Cytopathic effect [CPE] (5days) △TCID50): 2.5
Intracellular virus Average [6]: 8.50×10^2 /dish
inhibition at 100 µg/mL ([6]; extracellular virus): > 99.9%
log reduction at 100 µg/mL ([6]; extracellular virus): 5.78
inhibition at 100 µg/mL [6]: > 99.9%
log reduction at 100 µg/mL [6]: 5.68
